Read-outs that look alike come from different tables or passages of the source.
Experiments:
5-HT1A receptor [1] = target: T1, 5-HT1A receptor (Homo sapiens, UniProt P08908); assay: 5-HT1A receptor radioligand competition assay (SPA); format: binding; settings: competition with 0.5 nM [3H]8-hydroxy-DPAT, membranes containing 5-HT1A
T1 construct: purchased Perkin Elmer 6110501400UA
T1 sequence (P08908 1-422): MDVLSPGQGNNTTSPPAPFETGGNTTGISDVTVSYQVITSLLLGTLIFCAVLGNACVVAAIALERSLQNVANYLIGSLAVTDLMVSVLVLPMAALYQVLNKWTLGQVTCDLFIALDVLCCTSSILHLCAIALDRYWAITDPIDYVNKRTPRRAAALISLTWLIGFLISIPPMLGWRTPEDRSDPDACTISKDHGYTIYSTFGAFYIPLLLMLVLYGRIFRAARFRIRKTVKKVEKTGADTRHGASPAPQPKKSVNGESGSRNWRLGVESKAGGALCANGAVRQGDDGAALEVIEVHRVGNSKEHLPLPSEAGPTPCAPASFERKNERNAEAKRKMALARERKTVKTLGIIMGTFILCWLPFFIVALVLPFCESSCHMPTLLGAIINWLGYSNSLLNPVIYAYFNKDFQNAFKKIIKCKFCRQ

5-HT2A receptor = target: T2, 5-HT2A receptor (Homo sapiens, UniProt P28223); assay: biochemical; format: binding; settings: competition with 1 nM [3H]ketanserin, membranes containing 5-HT2A, SPA
T2 construct: purchased PerkinElmer ES-313-M400UA
T2 sequence (P28223 whole entry): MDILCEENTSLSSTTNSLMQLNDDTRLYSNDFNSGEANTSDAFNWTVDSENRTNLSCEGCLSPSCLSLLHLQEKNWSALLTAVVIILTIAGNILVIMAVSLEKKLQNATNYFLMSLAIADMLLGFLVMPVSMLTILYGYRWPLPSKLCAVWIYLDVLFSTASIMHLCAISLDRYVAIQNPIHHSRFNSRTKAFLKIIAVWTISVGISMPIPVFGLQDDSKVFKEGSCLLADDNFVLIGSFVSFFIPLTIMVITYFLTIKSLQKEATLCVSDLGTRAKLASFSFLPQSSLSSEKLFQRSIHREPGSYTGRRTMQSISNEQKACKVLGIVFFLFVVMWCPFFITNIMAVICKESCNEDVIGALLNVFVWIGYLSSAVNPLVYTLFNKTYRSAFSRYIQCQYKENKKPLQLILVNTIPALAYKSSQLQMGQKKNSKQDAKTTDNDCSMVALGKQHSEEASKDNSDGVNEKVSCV

5-HT1A receptor [2] = target: T1, 5-HT1A receptor; assay: Eurofins Cerep competition binding assay at 5-HT1A receptor; settings: 10 μM test ligand, [3H]8-OH-DPAT, recombinant receptor from HEK-293 cells; for inhibition at 10 µM: read-out: HT1A, percent of control-specific binding
5-HT2B receptor = target: T3, 5-HT2B receptor (Homo sapiens, UniProt P41595); assay: Eurofins Cerep competition binding assay at 5-HT2B receptor; settings: 10 μM test ligand, [3H]mesulergine, recombinant receptor from CHO cells; for inhibition at 10 µM: read-out: HT2B, percent of control-specific binding
T3 construct: host or cells: CHO cells (membrane preparation)
T3 sequence (P41595 whole entry): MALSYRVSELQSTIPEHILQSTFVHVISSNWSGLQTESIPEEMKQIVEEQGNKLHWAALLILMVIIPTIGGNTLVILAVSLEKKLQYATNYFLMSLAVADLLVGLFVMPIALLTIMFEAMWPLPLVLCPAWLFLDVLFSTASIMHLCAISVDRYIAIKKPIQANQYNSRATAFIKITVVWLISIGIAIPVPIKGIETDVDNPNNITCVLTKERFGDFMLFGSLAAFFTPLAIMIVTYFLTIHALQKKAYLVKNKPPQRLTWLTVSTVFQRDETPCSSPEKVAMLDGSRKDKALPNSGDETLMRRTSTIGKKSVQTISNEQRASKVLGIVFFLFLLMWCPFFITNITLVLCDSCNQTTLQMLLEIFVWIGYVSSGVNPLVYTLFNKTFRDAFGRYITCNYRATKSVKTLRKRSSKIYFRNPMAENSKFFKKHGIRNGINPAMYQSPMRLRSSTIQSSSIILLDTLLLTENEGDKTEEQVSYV

5-HT2C receptor = target: T4, 5-HT2C receptor (Homo sapiens, UniProt P28335); assay: Eurofins Cerep competition binding assay at 5-HT2C receptor; settings: 10 μM test ligand, [125I](±)DOI, recombinant receptor from HEK-293 cells; for inhibition at 10 µM: read-out: HT2C, percent of control-specific binding
T4 construct: host or cells: HEK-293 cells (membrane preparation)
T4 sequence (P28335 33-458): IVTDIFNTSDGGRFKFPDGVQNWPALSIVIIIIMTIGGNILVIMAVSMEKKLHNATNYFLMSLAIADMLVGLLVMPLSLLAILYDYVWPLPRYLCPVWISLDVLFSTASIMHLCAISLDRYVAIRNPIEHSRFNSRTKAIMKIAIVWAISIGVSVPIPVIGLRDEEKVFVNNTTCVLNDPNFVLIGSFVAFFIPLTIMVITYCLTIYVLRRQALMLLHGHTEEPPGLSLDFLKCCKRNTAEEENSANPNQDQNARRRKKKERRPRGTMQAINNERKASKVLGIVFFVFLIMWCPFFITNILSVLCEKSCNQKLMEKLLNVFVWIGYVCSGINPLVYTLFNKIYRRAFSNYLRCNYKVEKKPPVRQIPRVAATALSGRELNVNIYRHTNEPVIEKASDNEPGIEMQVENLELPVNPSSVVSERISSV

5-HT7 receptor = target: T5, 5-HT7 receptor (Homo sapiens, UniProt P34969); assay: Eurofins Cerep competition binding assay at 5-HT7 receptor; settings: 10 μM test ligand, [3H]LSD, recombinant receptor from HEK-293 cells; for inhibition at 10 µM: read-out: HT7, percent of control-specific binding
T5 construct: host or cells: HEK-293 cells (membrane preparation)
T5 sequence (P34969 whole entry): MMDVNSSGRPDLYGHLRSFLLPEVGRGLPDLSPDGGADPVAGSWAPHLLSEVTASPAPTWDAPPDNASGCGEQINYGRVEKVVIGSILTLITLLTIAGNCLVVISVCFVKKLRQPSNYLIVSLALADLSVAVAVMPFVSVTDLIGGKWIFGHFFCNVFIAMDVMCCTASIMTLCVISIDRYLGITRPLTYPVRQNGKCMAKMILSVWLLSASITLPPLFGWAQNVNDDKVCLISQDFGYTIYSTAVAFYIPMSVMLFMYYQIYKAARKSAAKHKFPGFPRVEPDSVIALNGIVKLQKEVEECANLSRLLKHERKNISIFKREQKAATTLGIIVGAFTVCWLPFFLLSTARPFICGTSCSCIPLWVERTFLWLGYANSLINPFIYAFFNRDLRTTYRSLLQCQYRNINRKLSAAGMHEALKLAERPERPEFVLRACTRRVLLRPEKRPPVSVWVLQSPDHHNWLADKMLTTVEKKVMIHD

alpha2A receptor = target: T6, alpha2A receptor (Homo sapiens, UniProt P08913); assay: Eurofins Cerep competition binding assay at alpha2A receptor; settings: 10 μM test ligand, [3H]RX 821002, recombinant receptor from CHO cells; for inhibition at 10 µM: read-out: α-2A, percent of control-specific binding
T6 construct: host or cells: CHO cells (membrane preparation)
T6 sequence (P08913 1-465): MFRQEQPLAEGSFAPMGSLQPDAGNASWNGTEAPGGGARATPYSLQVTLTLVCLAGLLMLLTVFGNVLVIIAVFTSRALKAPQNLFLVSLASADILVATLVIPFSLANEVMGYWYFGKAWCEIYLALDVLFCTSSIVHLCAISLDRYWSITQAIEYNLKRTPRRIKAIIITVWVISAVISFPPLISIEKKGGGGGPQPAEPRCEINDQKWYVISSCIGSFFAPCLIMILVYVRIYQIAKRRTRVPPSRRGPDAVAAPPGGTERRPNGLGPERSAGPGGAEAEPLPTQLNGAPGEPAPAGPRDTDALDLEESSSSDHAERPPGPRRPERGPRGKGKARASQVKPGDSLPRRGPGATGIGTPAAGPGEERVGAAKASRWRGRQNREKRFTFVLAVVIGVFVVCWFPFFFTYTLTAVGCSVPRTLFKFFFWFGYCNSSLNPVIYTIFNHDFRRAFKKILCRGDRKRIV

[3] = target: T7, serotonin transporter (SERT) (Homo sapiens, UniProt P31645); assay: biochemical; format: binding; settings: for inhibition at 10 µM: read-out: SERT, percent of control-specific binding; for SERT, percent of control-specific binding: 10 µM
T7 construct: host or cells: CHO cells (membrane preparation)
T7 sequence (P31645 whole entry): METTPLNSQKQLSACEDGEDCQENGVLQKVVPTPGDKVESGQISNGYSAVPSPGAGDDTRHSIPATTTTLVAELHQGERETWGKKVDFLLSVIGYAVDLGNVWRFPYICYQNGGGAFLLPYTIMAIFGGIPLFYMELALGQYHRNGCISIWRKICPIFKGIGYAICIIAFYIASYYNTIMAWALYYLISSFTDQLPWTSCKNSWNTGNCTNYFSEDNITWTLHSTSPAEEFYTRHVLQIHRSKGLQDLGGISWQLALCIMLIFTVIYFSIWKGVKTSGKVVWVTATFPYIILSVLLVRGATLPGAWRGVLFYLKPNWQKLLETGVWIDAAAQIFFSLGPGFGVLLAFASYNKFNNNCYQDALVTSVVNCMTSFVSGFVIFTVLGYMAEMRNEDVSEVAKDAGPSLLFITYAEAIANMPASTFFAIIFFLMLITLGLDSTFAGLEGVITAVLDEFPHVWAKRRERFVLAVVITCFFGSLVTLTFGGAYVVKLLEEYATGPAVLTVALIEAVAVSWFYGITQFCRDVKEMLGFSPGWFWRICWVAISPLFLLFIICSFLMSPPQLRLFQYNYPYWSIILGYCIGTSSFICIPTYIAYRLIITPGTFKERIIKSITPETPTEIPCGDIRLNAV

[4] = target: T8, dopamine transporter (DAT) (Homo sapiens, UniProt Q01959); assay: Eurofins Cerep competition binding assay at dopamine transporter; settings: for inhibition at 10 µM: read-out: DAT, percent of control-specific binding, 10 μM test ligand, [3H]BTCP, recombinant transporter from CHO cells; for DAT, percent of control-specific binding: 10 μM test ligand, [3H]BTCP, recombinant transporter from CHO cells
T8 construct: host or cells: CHO cells (membrane preparation)
T8 sequence (Q01959 whole entry): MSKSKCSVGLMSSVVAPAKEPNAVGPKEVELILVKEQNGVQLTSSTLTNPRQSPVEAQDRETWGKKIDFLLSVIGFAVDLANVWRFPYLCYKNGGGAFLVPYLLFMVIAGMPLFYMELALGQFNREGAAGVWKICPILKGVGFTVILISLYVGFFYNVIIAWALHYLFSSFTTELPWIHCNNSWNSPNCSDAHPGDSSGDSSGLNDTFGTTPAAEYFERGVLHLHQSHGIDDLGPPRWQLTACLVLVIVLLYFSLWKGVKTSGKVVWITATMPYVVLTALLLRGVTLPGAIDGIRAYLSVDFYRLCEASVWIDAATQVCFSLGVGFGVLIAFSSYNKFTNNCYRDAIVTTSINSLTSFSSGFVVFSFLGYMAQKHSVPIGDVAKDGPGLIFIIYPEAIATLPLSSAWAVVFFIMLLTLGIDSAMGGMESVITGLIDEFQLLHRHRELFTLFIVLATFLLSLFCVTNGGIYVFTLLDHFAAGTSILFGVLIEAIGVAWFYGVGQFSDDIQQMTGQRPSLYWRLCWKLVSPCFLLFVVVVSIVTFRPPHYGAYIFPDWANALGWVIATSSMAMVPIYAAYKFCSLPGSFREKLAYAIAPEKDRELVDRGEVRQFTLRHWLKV

MT1 receptor = target: T9, MT1 receptor (Homo sapiens, UniProt P48039); assay: Eurofins Cerep competition binding assay at MT1 receptor; settings: for inhibition at 10 µM: read-out: MT1, percent of control-specific binding, 10 μM test ligand, [125I]2-iodomelatonin, recombinant receptor from CHO cells; for MT1, percent of control-specific binding: 10 μM test ligand, [125I]2-iodomelatonin, recombinant receptor from CHO cells
T9 construct: host or cells: CHO cells (membrane preparation)
T9 sequence (P48039 whole entry): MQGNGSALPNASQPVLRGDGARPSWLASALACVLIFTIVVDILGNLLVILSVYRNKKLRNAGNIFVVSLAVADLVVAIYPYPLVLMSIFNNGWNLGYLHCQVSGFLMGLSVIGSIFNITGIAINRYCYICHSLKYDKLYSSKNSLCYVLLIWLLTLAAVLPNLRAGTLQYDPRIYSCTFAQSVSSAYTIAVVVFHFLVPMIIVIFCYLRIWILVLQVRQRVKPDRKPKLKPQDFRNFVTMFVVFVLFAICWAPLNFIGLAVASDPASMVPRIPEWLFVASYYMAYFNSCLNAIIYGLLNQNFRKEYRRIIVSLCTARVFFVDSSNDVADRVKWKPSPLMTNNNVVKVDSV

[5] = target: T10, norepinephrine transporter (NET) (Homo sapiens, UniProt P23975); assay: Eurofins Cerep competition binding assay at norepinephrine transporter; settings: for inhibition at 10 µM: read-out: NET, percent of control-specific binding, 10 μM test ligand, [3H]nisoxetine, recombinant transporter from CHO cells; for NET, percent of control-specific binding: 10 μM test ligand, [3H]nisoxetine, recombinant transporter from CHO cells
T10 construct: host or cells: CHO cells (membrane preparation)
T10 sequence (P23975 whole entry): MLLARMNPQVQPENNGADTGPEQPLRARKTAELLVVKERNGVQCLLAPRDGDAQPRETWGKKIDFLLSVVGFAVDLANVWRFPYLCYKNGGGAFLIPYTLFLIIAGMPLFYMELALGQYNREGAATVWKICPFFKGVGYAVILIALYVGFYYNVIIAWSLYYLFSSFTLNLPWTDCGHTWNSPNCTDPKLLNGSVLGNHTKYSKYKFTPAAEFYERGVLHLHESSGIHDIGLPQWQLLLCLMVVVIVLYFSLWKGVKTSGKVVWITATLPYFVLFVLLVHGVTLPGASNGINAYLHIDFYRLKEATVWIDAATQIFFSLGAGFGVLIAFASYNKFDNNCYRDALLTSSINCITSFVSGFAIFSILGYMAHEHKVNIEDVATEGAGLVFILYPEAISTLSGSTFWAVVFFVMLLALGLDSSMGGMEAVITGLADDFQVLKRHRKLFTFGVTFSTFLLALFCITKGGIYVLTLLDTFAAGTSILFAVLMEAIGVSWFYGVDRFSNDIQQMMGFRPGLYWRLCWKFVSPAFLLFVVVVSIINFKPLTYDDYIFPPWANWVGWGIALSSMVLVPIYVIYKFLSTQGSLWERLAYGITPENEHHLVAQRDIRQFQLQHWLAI

5-HT1A receptor [6] = target: T1, 5-HT1A receptor; assay: 5-HT1A receptor functional cellular response (cAMP) assay; format: cell-based
[7] = CHO-K1/5-HT1A/Gα15 cells stimulated with 4 μM forskolin, reduction of intracellular cAMP, read-out: 5-HT1A, EC50

SMILES | Ki (5-HT1A receptor [1]; 5-HT1A, Ki) [µM] | inhibition at 10 µM (5-HT1A receptor [2]) [%] | inhibition at 10 µM (5-HT2B receptor) [%] | inhibition at 10 µM (5-HT2C receptor) [%] | inhibition at 10 µM (5-HT7 receptor) [%] | inhibition at 10 µM (alpha2A receptor) [%] | inhibition at 10 µM [3] [%] | inhibition at 10 µM [4] [%] | inhibition at 10 µM (MT1 receptor) [%] | inhibition at 10 µM [5] [%] | EC50 (5-HT1A receptor [6]) [µM] | other results
CC(C(=O)c1ccc2c(c1)OCO2)N1CCCC1 (racemic) [A(I)] | 2 | 73 | 19 | 45 | 3 | 24 | 25 | 95 | 5 | 59 | – | Ki (5-HT2A receptor): 131 µM
CC(C(O)c1ccc2c(c1)OCO2)N(C)Cc1ccccc1 (single isomer, unassigned) [B(III) as diast. (iii)] | 110 | – | – | – | – | – | 58 | 75 | – | 42 | – | Ki (5-HT2A receptor): 44 µM; HT1A, percent of control-specific binding (5-HT1A receptor [2]; 10 µM): 0%; HT2B, percent of control-specific binding (5-HT2B receptor; 10 µM): 3%; HT2C, percent of control-specific binding (5-HT2C receptor; 10 µM): 5%; HT7, percent of control-specific binding (5-HT7 receptor; 10 µM): 10%; α-2A, percent of control-specific binding (alpha2A receptor; 10 µM): 7%; MT1, percent of control-specific binding (MT1 receptor; 10 µM): 0%
CNC(C)C(F)c1ccc2c(c1)OCO2 (single isomer, unassigned) [D(II) as diast. (vi)] | 6 | – | – | – | – | – | – | – | – | – | > 1000 | –
CC(C(F)c1ccc2c(c1)OCO2)N(C)Cc1ccccc1 (single isomer, unassigned) [D(III) as diast. (vii)] | 11.3 | 36 | 29 | 36 | 60 | 86 | 35 | 69 | 23 | 50 | 156 | –
COc1cc(CCN)c(OC)cc1Br [2C-B] | – | – | – | – | – | – | – | – | – | – | – | EC50 (5-HT1A receptor [6]; [7]): 5.95 µM; HT1A, percent of control-specific binding (5-HT1A receptor [2]): 96%; HT2B, percent of control-specific binding (5-HT2B receptor): 99%; HT7, percent of control-specific binding (5-HT7 receptor): 88%; α-2A, percent of control-specific binding (alpha2A receptor): 88%; SERT, percent of control-specific binding [3]: 42%; DAT, percent of control-specific binding [4]: 5%; MT1, percent of control-specific binding (MT1 receptor): 86%; NET, percent of control-specific binding [5]: 13%
CC(C(F)c1ccc2c(c1)OCO2)N1CCCC1 (stereo not drawn) [D(I) as diast. (v)] | – | – | – | – | – | – | – | – | – | – | > 1000 | –
C[C@@H]([C@H](F)c1ccc2c(c1)OCO2)N(C)Cc1ccccc1 [D(III) as diast. (vii)] | 11.3 | – | – | – | – | – | – | – | – | – | 156 | –
CNC(C)Cc1ccc2c(c1)OCO2 (stereo not drawn) [MDMA] | – | – | – | – | – | – | – | – | – | – | – | EC50 (5-HT1A receptor [6]; [7]): > 1000 µM; HT1A, percent of control-specific binding (5-HT1A receptor [2]): 68%; HT2B, percent of control-specific binding (5-HT2B receptor): 85%; HT2C, percent of control-specific binding (5-HT2C receptor): 96%; HT7, percent of control-specific binding (5-HT7 receptor): 58%; α-2A, percent of control-specific binding (alpha2A receptor): 27%; SERT, percent of control-specific binding [3]: 46%; DAT, percent of control-specific binding [4]: 28%; MT1, percent of control-specific binding (MT1 receptor): 1%; NET, percent of control-specific binding [5]: 3%
CCOc1c(OC)cc(CCN)cc1OC [escaline] | – | – | – | – | – | – | – | – | – | – | – | Ki (5-HT1A receptor [1]; read-out: 5-HT1A, Ki): 12.4 µM; HT1A, percent of control-specific binding (5-HT1A receptor [2]): 44%; HT2B, percent of control-specific binding (5-HT2B receptor): 81%; HT2C, percent of control-specific binding (5-HT2C receptor): 95%; HT7, percent of control-specific binding (5-HT7 receptor): 16%; α-2A, percent of control-specific binding (alpha2A receptor): 45%; SERT, percent of control-specific binding [3]: 0%; DAT, percent of control-specific binding [4]: 0%; MT1, percent of control-specific binding (MT1 receptor): 0%; NET, percent of control-specific binding [5]: 6%
COc1cc(CCN)cc(OC)c1OC [mescaline, 3,4,5 trimethoxyphenethylamine] | 8.5 | 65 | 80 | 95 | 38 | 57 | -6 | -1 | 6 | -9 | > 1000 | –
CCCOc1c(OC)cc(CCN)cc1OC [proscaline] | 9.4 | 71 | 85 | 97 | 5 | 40 | 23 | -2 | 3 | -9 | – | Ki (5-HT2A receptor): 82 µM
CN(C)CCc1c[nH]c2cccc(O)c12 [psilocin] | – | – | – | – | – | – | – | – | – | – | 0.957 | –
